Patent US12448388B2, “PRMT5 inhibitors and uses thereof” (Gilead Sciences, Inc., priority 2023, dated 2025)
In brackets after ≈: the same amount, converted by molar mass. Like-named read-outs stand apart in the source and are kept apart here.

What was measured:
[1] = test system: HCT116 MTAP-deleted cell lines; assay: Cell viability assay (CellTiter-Glo, 7 days), HCT116 MTAP-deleted; assay type: cell-based; settings: for Selectivity: HCT116 WT CC50 versus HCT116 MTAP^del CC50; for CC50: Homo sapiens, HCT116 MTAP-deleted; for plasma-adjusted CC50 (paCC50): paCC50 = CC50-HCT116-MTAP^del * (% free CCM/% free human plasma)
How it was run: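 PRMT5 inhibitors were serially diluted in DMSO and acoustically spotted as dose-response series into plates before cell seeding. Cells were grown with compound for 7 days at 37 °C, 5% CO2, 90% humidity, then viability was read by CellTiter-Glo luminescence and reported as CC50.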

[2] = Cell viability assay (CellTiter-Glo, 7 days), HCT116 WT; assay type: cell-based; settings: human, HCT116 WT cells, 7 days of treatment, CTG
Protocol: Control compounds were analyzed in parallel each time for quality control. In Brief, on Day -1, a serial dilution of stock compounds in DMSO was performed using BioMek liquid handlers and dispensed using Echo acoustic dispenser into 384 well plates. Both tool compounds and sample compounds were spotted in the same plate for a dose response of PRMT5 inhibitors. Compound plates were stored as frozen until the cells were ready for seeding. […] After equilibrating the plate in room temperature, the cells were incubated for 7 days inside the sealed incubator set at 37° C. with 90% humidity and 5% CO2. On Day 7, the viability of cells was measured using a CTG assay kit (CellTitre-Glo;Promega cat no. G7573). Shortly, 40 μl per well of luminescent cell viability assay reagent were dispensed using EL460 liquid dispenser 5 μl cassette. CTG luminescence signal was measured using an EnVision plate reader (PerkinElmer) in accordance with manufacturer's instruction. […] Selectivity with * is artificially high due to limited solubility of the compound hampering accurate measurement of WT CC50.

[3] = test system: Symmetric Di-methyl Arginine (SDMA) signal (PRMT5 inhibition) in HCT116 MTAP-deleted cells; assay: Symmetric di-methyl arginine image-based high content screen assay (SDMA assay), HCT116 MTAP-deleted; assay type: cell-based; settings: for EC50 selectivity: HCT116 WT vs HCT116 MTAP-deleted; for EC50: Homo sapiens, HCT-116, HCT116 MTAP-deleted, class symbols
How it was run: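 HCT116 WT and MTAP-deleted cells (800/well, RPMI 1640 + 10% FBS) treated with compound 3 days at 37 °C; formalin-fixed, stained with anti-SDMA antibody/Alexa 488 plus DAPI. Mean SDMA intensity per DAPI-defined cell imaged; EC50 from 4-parameter logistic fit.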

[4] = PBS solubility (kinetic solubility from DMSO stocks); assay type: physicochemical; settings: 22 °C, aqueous buffer, kinetic from dmso stock; 1x PBS pH 7.4, 1.0% DMSO, 24-hour incubation at ambient temperature
Protocol: Buffer Preparation: 1×PBS, 7.4: Phosphate Buffered Saline solution 10×, PBS (Fisher Bioreagent, part number BP399-500) 50 mL was added to approximately 450 mL HPLC grade H2O. The volume of the solution was then adjusted to 500 mL for a total dilution factor of 1:10 and a final PBS concentration of 1×. The pH of the final solution was measured and found to be 7.4.
The final DMSO Concentration is 1.0% and maximum theoretical compound concentration is 100 μM (assuming stock concentration of 10 mM). The filter plate was sealed. Following 24-hour incubation at ambient temperature (20.8-24.0° C.), the samples were vacuum filtered, and the filtrates were collected in a 96 well polypropylene plate for analysis. The collection plate was sealed for analysis. Filtrates were injected into the nitrogen detector for quantification on Analiza's Automated Discovery Workstation. The results are reported here in both μM and μg/mL.
Calculation of Results: The equimolar nitrogen response of the detector is calibrated using standards which span the dynamic range of the instrument from 0.08 to 4500 μg/ml nitrogen. The filtrates were quantified with respect to this calibration curve. The calculated solubility values are corrected for background nitrogen present in the DMSO, and the media used to prepare the samples. All reported values for compounds containing adjacent nitrogen atoms in a ring structure should be increased by ˜25%. […] The solubility results presented assume that the samples were free of nitrogen containing impurities and are stable under the assay conditions.

[5] = MDR1/BCRP assay: permeability in cPgp-KO-MDCK-WT cells; assay type: in vitro ADME; settings: dog, pH 7.4
Protocol: The cells were maintained in an incubator at 37° C., 90% humidity, and 5% CO2 until reaching confluence over 5 days in 96-well transwell plates. Experiments were conducted using an HBSS donor buffer (Invitrogen) containing 10 mM HEPES and 15 mM glucose, adjusted to pH 7.4. The receiver well contained HBSS buffer supplemented with 1% BSA, 10 mM HEPES, and 15 mM glucose, and the pH was adjusted to 7.4. TEER values were measured to assess membrane integrity after an initial equilibration with BSA-free transport buffer for 15 minutes. The experiment was started by adding dosing solutions containing test compounds at 1 μM. Cells were dosed on the apical (A) side or basolateral (B) side at 100 μl and 200 μl, respectively, to determine forward (A to B) and reverse (B to A) permeability. At the 2-hour time point, 50 μl samples were collected from the receiver compartment. Each compound was tested in 2 separate replicate wells for each condition. All samples were immediately collected into plates, and 50 μL of acetonitrile was added. Subsequently, 350 μl of 30:70 methanol: acetonitrile containing internal standard was added to precipitate proteins and stabilize the test compounds. To test for non-specific binding and compound instability, the total amount of the drug was quantified at the end of the experiment and compared to the material present in the original dosing solution as a percentage of the recovery. All samples were analyzed by LC-MS/MS using electrospray ionization.
The apparent permeability, Papp, and % recovery were calculated as follows: […]

[6] = HCT-116, 168 h, 7 days of treatment, CTG, read-out: CC50-HCT116-MTAP^del
[7] = HCT-116, cell viability assay, class symbols, read-out: CC50
[8] = HCT-116, cell viability, class symbols, read-out: CC50

SMILES | Selectivity [1] | CC50 [1, 6] [nM] | CC50 [1, 7] [nM] | CC50 at 7 days [2] [nM] | EC50 selectivity [3] | EC50 [3] [nM] | plasma-adjusted CC50 (paCC50) ([1]; HCT-116) [nM] | solubility at 24 h [4] [µM] | Papp A→B at 2 h, 1 µM [5] [×10⁻⁶ cm/s] | CC50 [1, 8] [nM]
Cc1ncn2c1c(N)nc1cnc(C(=O)N3CC[C@H]4C[C@@H]3c3ccc(C(F)(F)F)c(F)c3O4)cc12 [Ff-633, (4-amino-3-methylimidazo[1,5-a]pyrido[3,4-e]pyrazin-8-yl)((2S,6R)-10-fluoro-9-(trifluoromethyl)-3,4-dihydro-2H-2,6-methanobenzo[b][1,5]oxazocin-5(6H)-yl)methanone] | 104 | 20 | < 100 | 2080 | 82 | 1 to 5 | – | – | – | –
Nc1nc2cnc(C(=O)N3CC[C@H]4C[C@@H]3c3c(F)cc(OC(F)(F)F)cc3O4)cc2n2cncc12 (single isomer, unassigned) [Ff-692] | 69 | 14 | – | 969 | – | – | 139 | 18.6 (≈ 9.08 µg/mL) | – | –
Cc1ncc2c(N)nc3cnc(C(=O)N4CC[C@H]5C[C@@H]4c4ccc(C(F)(F)F)c(F)c4O5)cc3n12 [Ff-699, (4-amino-1-methylimidazo[1,5-a]pyrido[3,4-e]pyrazin-8-yl)((2S,6R)-10-fluoro-9-(trifluoromethyl)-3,4-dihydro-2H-2,6-methanobenzo[b][1,5]oxazocin-5(6H)-yl)methanone] | 74 | 15 | – | 1110 | – | – | 237 | 2.6 (≈ 1.26 µg/mL) | 10.9 | –
Nc1nc2cc(F)c(C(=O)N3CCC[C@@H]4Oc5cc(OC(F)(F)F)cc(F)c5[C@@H]43)cc2n2cncc12 [Fg-68, (4-amino-7-fluoroimidazo[1,5-a]quinoxalin-8-yl)((4aS,9bS)-9-fluoro-7-(trifluoromethoxy)-3,4,4a,9b-tetrahydrobenzofuro[3,2-b]pyridin-1(2H)-yl)methanone] | 89 | 8 | – | 708 | – | – | 130 | < 1 | – | –
Cc1ncn2c1c(N)nc1cc(F)c(C(=O)N3CCCC[C@@H]3c3ccc(S(F)(F)(F)(F)F)cc3)cc12 [Ff-402, (R)-(4-amino-7-fluoro-3-methylimidazo[1,5-a]quinoxalin-8-yl)(2-(4-(pentafluoro-16-sulfaneyl)phenyl)piperidin-1-yl)methanone] | 84 | 30 | < 100 | 2520 | – | – | 40 | 18.3 (≈ 9.69 µg/mL) | – | –
Nc1nc2cnc(C(=O)N3CCC[C@@H]4Oc5cc(C(F)(F)F)c(F)cc5[C@@H]43)cc2n2cncc12 [Ff-115, (4-aminoimidazo[1,5-a]pyrido[3,4-e]pyrazin-8-yl)((4aS,9bS)-8-fluoro-7-(trifluoromethyl)-3,4,4a,9b-tetrahydrobenzofuro[3,2-b]pyridin-1(2H)-yl)methanone] | 48 | 10 | – | 478 | – | – | 202 | < 1 | 7.6 | < 100
Cc1ncn2c1c(N)nc1cc(F)c(C(=O)N3CCC[C@@H]4Oc5cc(C(F)(F)F)ccc5[C@@H]43)cc12 [Ff-379, (4-amino-7-fluoro-3-methylimidazo[1,5-a]quinoxalin-8-yl)((4aS,9bS)-7-(trifluoromethyl)-3,4,4a,9b-tetrahydrobenzofuro[3,2-b]pyridin-1(2H)-yl)methanone] | 56 | 13 | < 100 | 730 | – | – | – | < 1 | 10 | –
Nc1nc2cnc(C(=O)N3C[C@H](F)CC4Oc5cc(C(F)(F)F)ccc5[C@@H]43)cc2n2cncc12 (mixture of isomers) [Ff-113, Rac-(4-aminoimidazo[1,5-a]pyrido[3,4-e]pyrazin-8-yl)((3R,4aS,9bS)-3-fluoro-7-(trifluoromethyl)-3,4,4a,9b-tetrahydrobenzofuro[3,2-b]pyridin-1(2H)-yl)methanone] | 86 | 30 | – | 2570 | – | – | – | 1.1 (≈ 0.52 µg/mL) | 12.3 | < 100
Cc1ncc2c(N)nc3ccc(C(=O)N4CCC[C@@H]5Oc6cc(C(F)(F)F)ccc6[C@@H]54)cc3n12 [Ff-345, (4-amino-1-methylimidazo[1,5-a]quinoxalin-8-yl)((4aS,9bS)-7-(trifluoromethyl)-3,4,4a,9b-tetrahydrobenzofuro[3,2-b]pyridin-1(2H)-yl)methanone] | 113 | 32 | – | 3620 | – | – | – | < 1 | 10.2 | < 100
Cc1ncn2c1c(N)nc1cnc(C(=O)N3CC[C@H]4C[C@@H]3c3ccc(OC(F)(F)F)cc3O4)cc12 [Ff-632, (4-amino-3-methylimidazo[1,5-a]pyrido[3,4-e]pyrazin-8-yl)((2S,6R)-9-(trifluoromethoxy)-3,4-dihydro-2H-2,6-methanobenzo[b][1,5]oxazocin-5(6H)-yl)methanone] | 93 | 18 | < 100 | 1680 | – | – | 270 | – | – | –
Cc1cc2nc(N)c3cncn3c2cc1C(=O)N1CCC[C@@H]2Oc3cc(C(F)(F)F)ccc3[C@@H]21 [Ff-368, (4-amino-7-methylimidazo[1,5-a]quinoxalin-8-yl)((4aS,9bS)-7-(trifluoromethyl)-3,4,4a,9b-tetrahydrobenzofuro[3,2-b]pyridin-1(2H)-yl)methanone] | 59 | 3 | < 100 | 178 | 47 | ≤ 1 | – | – | – | –
Nc1nc2cc(F)c(C(=O)N3CCC[C@@H]4Oc5ccc(C(F)(F)F)cc5[C@@H]43)cc2n2cncc12 [Ff-620, (4-amino-7-fluoroimidazo[1,5-a]quinoxalin-8-yl)((4aS,9bS)-8-(trifluoromethyl)-3,4,4a,9b-tetrahydrobenzofuro[3,2-b]pyridin-1(2H)-yl)methanone] | 50 | 31 | < 100 | 1550 | – | – | – | 1.2 (≈ 0.566 µg/mL) | – | –
